Data published in patent US20170204126A1, “MOLYBDENUM- AND TUNGSTEN-CONTAINING PRECURSORS FOR THIN FILM DEPOSITION” (L'Air Liquide, Société Anonyme pour l'Etude et …, priority 2014, published 2017).

Columns and labels:
[1] = Vapor pressure
[2] = Solubility of the compound in common solvents; conditions: for Solubility in alkanes and toluene: at room temperature
Description: Measurement Conditions: • Sample weight: 26.00 mg • Atmosphere: Nitrogen, 1 atmospheric pressure • Heating rate: 10° C.·min^−1 • Solubility of the compound in common solvents
Measurement Conditions: • Sample weight: 24.57 mg • Atmosphere: Nitrogen, 1 atmospheric pressure • Heating rate: 10° C.·min^−1 • Solubility of the compound in common solvents
Measurement Conditions: • Sample weight: 21.19 mg • Atmosphere: Nitrogen, 1 atmospheric pressure • Heating rate: 10° C.·min^−1 • Solubility of the compound in common solvents
Measurement Conditions: • Sample weight: 23.09 mg • Atmosphere: Nitrogen, 1 atmospheric pressure • Heating rate: 10° C.·min^−1 • Solubility of the compound in common solvents
Measurement Conditions: • Sample weight: 19.79 mg • Atmosphere: Nitrogen, 1 atmospheric pressure • Heating rate: 10° C.·min^−1 • Solubility of the compound in common solvents
Measurement Conditions: • Sample weight: 27.43 mg • Atmosphere: Nitrogen, 1 atmospheric pressure • Heating rate: 10° C.·min^−1 • Solubility of the compound in common solvents

[3] = Thermal Stability Test (storage at 50° C.); assay type: physicochemical
Description: The product was stored at 50° C. for 14 and 44 days. The W(OsBu)6 content after 14 days was 1.1 atomic %. The W(OsBu)6 content after 44 days was 1.2 atomic %.

Compound: CC(C)C(C)[O][W](=[O])([O]C(C)C(C)C)([O]C(C)C(C)C)[O]C(C)C(C)C (stereo not shown) [W(═O)(OCH(CH3)(CH(CH3)2))4]
- Vapor pressure ([1]; at 147° C.): 1 Torr
- Solubility in common organic solvents ([2]; hexane, acetone, chloroform, and/or toluene): miscible

Compound: CC(C)C[O][W](=[O])([O]CC(C)C)([O]CC(C)C)[O]CC(C)C [W(═O)(OiBu)4, W(═O)(OCH2CH(CH3)2)4]
- Solubility in alkanes and in toluene ([2]; toluene up to 80° C.): very low solubility

Compound: CC(C)[O][W](=[O])([O]C(C)C)([O]C(C)C)[O]C(C)C [W(═O)(OiPr)4, W(═O)(OCH(CH3)2)4]
- Vapor pressure ([1]; at 103° C.): 1 Torr
- Solubility in alkanes ([2]; alkanes): very low solubility
- Solubility in toluene ([2]; toluene at 60° C.): soluble

Compound: CCCC[O][W](=[O])([O]CCCC)([O]CCCC)[O]CCCC [W(═O)(OnBu)4]
- Solubility in alkanes and toluene [2]: very low solubility

Compound: CCC[O][W](=[O])([O]CCC)([O]CCC)[O]CCC [W(═O)(OnPr)4]
- Solubility in alkanes and toluene [2]: very low solubility

Compound: tungsten oxo sec-butoxide [W(═O)(OsBu)4]
- W(OsBu)6 content after storage ([3]; stored at 50° C. for 14 days): 1.1 atomic %
- W(OsBu)6 content after storage ([3]; stored at 50° C. for 44 days): 1.2 atomic %
